Results taken from ChEMBL document CHEMBL1158743, “Tenellones A and B from a Diaporthe sp.: two highly substituted benzophenone inhibitors of parasite cGMP-dependent protein kinase activity” (J Nat Prod, 2005).
≈ marks a conversion by molar mass, not a printed value. Calls of active or inactive are those of the source. The rule behind the calls is not given here.

What was measured:
[1] = target: cGMP-dependent protein kinase (Eimeria tenella, UniProt Q8MMZ8); assay: Inhibition of Eimera tenella CGMP-dependent protein kinase by radiometric assay
Enterococcus faecium = assay: Antibacterial activity against Enterococcus faecium; format: functional
Staphylococcus aureus = assay: Antibacterial activity against Staphylococcus aureus; format: functional
Eimeria tenella = assay: Antiparasitic activity against Eimera tenella infected in chickens given ad libitum at 100 ppm fed with diet; format: functional, organism-based
Toxoplasma gondii = assay: Antiparasitic activity against Toxoplasma gondii infected in human foreskin fibroblasts assessed as beta-galactosidase activity after 5 days by whole cell assay; format: functional, organism-based; settings: 120 h
Gallus gallus = species: Gallus gallus; assay: Toxicity to Eimera tenella infected chickens given ad libitum at 100 ppm; format: organism-based; settings: chicken, in vivo, po

Sequence of cGMP-dependent protein kinase (Q8MMZ8 whole entry): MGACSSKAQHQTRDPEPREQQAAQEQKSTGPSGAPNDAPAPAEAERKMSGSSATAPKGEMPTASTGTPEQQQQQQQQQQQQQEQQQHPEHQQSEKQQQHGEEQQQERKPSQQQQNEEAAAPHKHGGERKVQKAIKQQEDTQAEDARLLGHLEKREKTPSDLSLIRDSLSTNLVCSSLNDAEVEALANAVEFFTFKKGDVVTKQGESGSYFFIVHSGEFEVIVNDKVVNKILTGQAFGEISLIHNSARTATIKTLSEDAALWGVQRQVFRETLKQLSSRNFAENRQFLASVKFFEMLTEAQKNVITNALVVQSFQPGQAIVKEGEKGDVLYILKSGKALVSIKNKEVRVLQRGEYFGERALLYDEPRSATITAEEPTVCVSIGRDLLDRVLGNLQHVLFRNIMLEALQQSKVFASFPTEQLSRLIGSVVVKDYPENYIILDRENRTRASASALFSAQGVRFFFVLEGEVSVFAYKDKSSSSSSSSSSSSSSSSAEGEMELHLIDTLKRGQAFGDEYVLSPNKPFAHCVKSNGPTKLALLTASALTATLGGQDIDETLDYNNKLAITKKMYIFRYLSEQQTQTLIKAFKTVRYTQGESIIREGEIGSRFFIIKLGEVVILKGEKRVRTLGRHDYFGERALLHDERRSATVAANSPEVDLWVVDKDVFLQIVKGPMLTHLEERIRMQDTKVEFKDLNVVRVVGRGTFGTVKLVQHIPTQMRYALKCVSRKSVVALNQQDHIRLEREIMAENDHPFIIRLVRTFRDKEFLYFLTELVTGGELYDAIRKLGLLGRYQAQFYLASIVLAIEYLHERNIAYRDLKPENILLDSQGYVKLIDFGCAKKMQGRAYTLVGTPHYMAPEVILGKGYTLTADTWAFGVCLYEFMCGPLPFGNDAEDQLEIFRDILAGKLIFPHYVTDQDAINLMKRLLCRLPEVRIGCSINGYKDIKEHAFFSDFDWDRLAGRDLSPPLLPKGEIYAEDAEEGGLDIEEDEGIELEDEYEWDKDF

Compound | IC50 [1] [µM] | MIC (Enterococcus faecium) [µg/mL] | MIC (Staphylococcus aureus) [µg/mL] | Activity (Eimeria tenella) | IC50 (Toxoplasma gondii) [µM] | Activity (Gallus gallus)
CN1CCC(c2cc(-c3ccncc3)c(-c3ccc(F)cc3)[nH]2)CC1 | < 0.001 | – | – | – | – | –
COc1c(Cl)c(C)c(Cl)c(O)c1C(=O)c1c(C=O)c(O)cc(O)c1CC=C(C)C [PESTALONE] | – | 0.078 (≈ 0.178 µM) | 0.037 (≈ 0.0842 µM) | – | – | –
CC(C)=CCc1ccc(O)c(C=O)c1C(=O)c1cc(C)cc(OCC(O)C(C)(C)O)c1O (stereo not given) [TENELLONE A] | 12.6 | – | – | inactive | 1.8 | Non-toxic
CC(C)=CCc1ccc(O)c(C=O)c1C(=O)c1cc(C)cc2c1OC(C(C)(C)O)CO2 (stereo not given) [TENELLONE B] | 8.7 | – | – | inactive | – | Non-toxic
